Columns and labels:
Experiment in all cases: 3' UTR reporter interaction score (median-centred robust z-score of log2 firefly/Renilla activity); higher = less repression of the 3' UTR reporter
Conditions in all cases: HEK293T; 48 h
BRCA2 = system: BRCA2
In short: (§1)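 The interaction score is based on the log-transformed firefly/Renilla luciferase ratio, scaled as a robust z-score within each plate by median and median absolute deviation and median-centred for each miRNA; more negative scores indicate interaction. It was averaged over at least two independent screens. Readings were taken 48 h after HEK293T cells (10,000/well, 96-well plates) were co-transfected by DharmaFECT Duo with 100 ng firefly luc2P 3' UTR reporter, 20 ng Renilla pRL-TK and 2.5 pmol miRNA mimic.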

EZH2 = system: EZH2
In short: as §1

FBXW7 = system: FBXW7
In short: as §1

MYB = system: MYB
In short: as §1

MYCN = system: MYCN
In short: as §1

MYC = system: MYC
In short: as §1

MYT1L = system: MYT1L
In short: as §1

NOTCH1 = system: NOTCH1
In short: as §1

PHF6 = system: PHF6
In short: as §1

PHOX2B = system: PHOX2B
In short: as §1

RB1 = system: RB1
In short: as §1

TP53 = system: TP53
In short: as §1

ZEB2 = system: ZEB2
In short: as §1

HRAS = system: HRAS
In short: as §1

| Sequence | 3' UTR reporter interaction score (BRCA2) | 3' UTR reporter interaction score (EZH2) | 3' UTR reporter interaction score (FBXW7) | 3' UTR reporter interaction score (MYB) | 3' UTR reporter interaction score (MYCN) | 3' UTR reporter interaction score (MYC) | 3' UTR reporter interaction score (MYT1L) | 3' UTR reporter interaction score (NOTCH1) | 3' UTR reporter interaction score (PHF6) | 3' UTR reporter interaction score (PHOX2B) | 3' UTR reporter interaction score (RB1) | 3' UTR reporter interaction score (TP53) | 3' UTR reporter interaction score (ZEB2) | 3' UTR reporter interaction score (HRAS) |
| --- | --- | --- | --- | --- | --- | --- | --- | --- | --- | --- | --- | --- | --- | --- |
| CAGUGCAAUAGUAUUGUCAAAGC | 0.327 | -0.946 | 0.383 | -1.09 | 0.282 | -0.162 | -1.35 | 1.2 | 1.54 | -0.134 | 1.9 | -0.369 | -0.0807 |  |
| CCUAGUAGGUGUCCAGUAAGUGU | -0.873 | -0.633 | -0.251 | 0.0319 | 0.245 | 0.727 | 0.0095 | 0.26 | -0.224 | 0.805 | -1.08 | -0.172 |  | -0.971 |
| CUCCUGACUCCAGGUCCUGUGU | 0.612 | -0.51 | -0.332 | 0.427 | -0.0476 | 1.1 |  | 0.232 | -4.57 | -0.0385 | 0.546 | 0.342 | -1.51 | 0.32 |
| GGCAAGAUGCUGGCAUAGCUG |  | -0.113 | 1.19 | 0.765 | 0.322 | 0.017 | -0.16 | -0.293 | -1.44 | 1.14 | 0.334 | -0.71 | 1.14 | 0.647 |
| GGCUAGCAACAGCGCUUACCU | -0.392 |  | 0.164 | -0.249 | 0.326 | -0.989 | 0.317 | -0.508 | -0.414 | 0.192 | 0.235 | 0.432 | 0.537 | -0.311 |
| GGUCCAGAGGGGAGAUAGG | -0.441 | -0.024 | -0.103 | -0.834 | -0.926 | -0.219 | 0.466 | 0.349 | 0.39 | -0.69 | -0.274 | 0.186 | -0.0605 |  |
| GUGAAAUGUUUAGGACCACUAG | -0.28 | -0.221 | 0.238 | -0.192 | -0.394 |  | 0.987 | -0.392 | 1.07 | 0.216 | -0.00504 | 0.19 | 0.105 | -0.276 |
| UAAGGCACCCUUCUGAGUAGA | 0.5 | -2.69 | 0.601 |  | -0.435 | -0.593 | 1.04 | -0.104 | -0.903 | 1.39 | -1.28 | -0.0578 | 0.807 | 0.999 |
| UAAUACUGCCUGGUAAUGAUGAC |  | 0.31 | -0.751 | -2.25 | -0.158 | 1.05 | 1.12 | -0.616 | 2 | -1.14 | 0.622 | -0.665 | -3.47 | -0.0979 |
| UACGUCAUCGUUGUCAUCGUCA | 0.347 | -0.223 | 0.256 | -0.203 | -1.02 | -0.111 |  | -0.131 | -0.457 | 0.31 | 0.229 | 0.00955 | -2.2 | 0.167 |
| UACUCAGGAGAGUGGCAAUCACA | 0.435 | -0.403 | -0.521 | 1.48 | 0.696 | 0.13 | -0.715 | -0.379 | -1.8 | 0.756 | -0.0737 |  | 0.272 | -0.17 |
| UAGCAGCACAUAAUGGUUUGUG | -0.161 |  | -3.3 | -1.32 | -0.121 | 1.03 | -2.1 | 0.0154 | 1 | 0.742 | -0.091 | -0.405 | 1.33 | 1.55 |
| UCACUCCUCUCCUCCCGUCUUCU | -0.727 | -1.64 | -1.25 | 0.575 | 0.923 |  | 1.44 | 1.17 | 0.199 | -0.219 | 0.27 | -0.451 | 1.61 | -0.435 |
| UCUCACACAGAAAUCGCACCCGUC | 1 |  | -0.236 | 0.485 | -1.33 | -3.89 | -0.241 | 0.283 | 0.199 | 0.123 | -0.308 | -0.669 | 0.106 | -1.52 |
| UGAGGUAGGAGGUUGUAUAGU | 0.75 | -3.52 | 0.127 | 0.624 | -3.52 | -2.75 | -0.34 | -0.642 | -0.232 | 0.238 |  | 0.0915 | -0.156 | 0.649 |
| UGUAAACAUCCUUGACUGGA | 0.0901 | -0.145 | 0.548 | 0.77 | -0.313 |  | 0.512 | -0.407 | -0.821 | 0.574 | -0.17 | -0.0994 | -1.5 | 0.642 |
| UGUAACAGCAACUCCAUGUGGA | 0.232 | -1.3 | -1.43 | 0.809 | 0.331 | -1.28 | -0.161 | -0.0483 | 1.94 | -2.2 | -0.726 | -0.515 | 0.401 |  |
| UUUCAAGCCAGGGGGCGUUUUUC | -0.216 | -0.378 | 1.22 | 0.555 | -0.0394 | 0.49 | 0.976 | -1.91 | -0.209 | -0.413 | -0.19 | 1.02 |  | -0.232 |
| UUUGGCACUAGCACAUUUUUGC | 0.322 | 0.814 | -1.69 |  | 0.288 | 0.306 | -0.203 | 0.319 | -0.863 | 0.531 | 0.451 | -0.115 | 0.198 | 0.722 |
| UUUGUGACCUGGUCCACUAACC | -0.491 | 0.358 | -0.879 | 0.254 | 0.167 | -1.92 | -0.568 | 0.65 | 0.815 | 0 | 0.728 | -1.6 | 0.152 |  |
